Among the data in US12691095B2, “Modulators of TNF-alpha activity” (Forward Therapeutics, Inc., priority 2024, dated 2026) are IC50 values, retold here.

Broadly, the IC50 is the point on the concentration scale where inhibition reaches its midpoint.

The structures appear in SMILES notation.

The target in the first test is T1, TNF-α (Homo sapiens, UniProt P01375).
T1 construct: purchased R&D 210-TA-020/CF
T1 sequence (P01375 77-233 limits assumed): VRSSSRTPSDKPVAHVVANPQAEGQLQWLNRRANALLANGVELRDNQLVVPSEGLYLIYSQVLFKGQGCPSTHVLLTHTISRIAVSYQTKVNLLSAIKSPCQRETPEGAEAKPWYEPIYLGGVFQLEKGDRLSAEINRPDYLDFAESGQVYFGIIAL
In words: TNF-α Induced HEK Blue Cellular Assay. The test is classed as cell-based. The settings on record: HEK Blue TNFα reporter cells stimulated with TNF-α, 24 hrs, secreted alkaline phosphatase (QUANTI-Blue, 620 nm). As for the experimental part: (§1) Test articles were diluted in DMSO and serially diluted into 384 well assay plate (Corning 3765), at final concentrations ranging from […] to 0.5 nM. HEK Blue™ TNFα reporter cells were added at a final density of 10,000 cell per well in assay media [DMEM (Gibco, cat #21063-029), 10% fetal bovine serum (ExcelBio, cat #FND500), 1% Penicillin-Streptomycin (Solarbio, cat #P1400-100]. TNF-α (R&D 210-TA-020/CF) was then added to the assay plate at a final concentration of […]. This plate was then incubated for 24 hrs at 37° C. and 5% CO2. Secreted alkaline phosphatase expression was then measured using QUANTI- Blue™ (Invivogen), according to manufacturer instructions and read on an Envision microplate reader at 620 nm.
Inhibition data for test compound over a range of concentration was plotted as percentage inhibition of the test compound (100%=maximum inhibition). IC50 values were determined after correcting for background [(sample read-mean of low control)/(mean of high control-mean of low control)] where by the low control is DMSO without stimulation and high control is DMSO with stimulation. The IC50 is defined as the concentration of test compound which produces 50% inhibition and was quantified using the 4 parameter logistic equation to fit the data.
`CP(C)(=O)c1ccc(-c2ccc3nc4n(c3c2)[C@@H]2C[C@H]4NC(=O)c3cccc(Cl)c32)cn1` [Example 5, (7R,14R)-1-chloro-11-(6-(dimethylphosphoryl)pyridin-3-yl)-6,7-dihydro-7,14-methanobenzo[f]benzo[4,5]imidazo[1,2-a][1,4]diazocin-5(14H)-one]: the IC50 is ≤ 0.1 µM. Turning to `[2H]C([2H])([2H])N1C(=O)c2cccc(Cl)c2[C@H]2C[C@@H]1c1nc3ccc(-c4ccc(P(C)(C)=O)cc4)cc3n12` [Example 7, (7R,14R)-1-chloro-11-(4-(dimethylphosphoryl)phenyl)-6-(methyl-d3)-6,7-dihydro-7,14-methanobenzo[f]benzo[4,5]imidazo[1,2-a][1,4]diazocin-5(14H)-one], the IC50 is ≤ 0.1 µM. On the same count and under the same terms, in the case of `[2H]C([2H])([2H])N1C(=O)c2cccc(Cl)c2[C@H]2C[C@@H]1c1nc3ccc(-c4ccc(P(C)(C)=O)c(F)c4)cc3n12` [Example 1, (7R,14R)-1-chloro-11-(4-(dimethylphosphoryl)-3-fluorophenyl)-6-(methyl-d3)-6,7-dihydro-7,14-methanobenzo[f]benzo[4,5]imidazo[1,2-a][1,4]diazocin-5(14H)-one] it was ≤ 0.1 µM. On to `[2H]C([2H])([2H])N1C(=O)c2cccc(F)c2[C@H]2C[C@@H]1c1nc3ccc(-c4cc(F)c(P(C)(C)=O)cc4F)cc3n12` [Example 12, (7R,14R)-11-(4-(dimethylphosphoryl)-2,5-difluorophenyl)-1-fluoro-6-(methyl-d3)-6,7-dihydro-7,14-methanobenzo[f]benzo[4,5]imidazo[1,2-a][1,4]diazocin-5(14H)-one], for which the IC50 is ≤ 0.1 µM.

In the case of `[2H]C([2H])([2H])N1C(=O)c2c(C)ccc(Cl)c2[C@H]2C[C@@H]1c1nc3ccc(-c4ccc(P(C)(C)=O)c(F)c4)cc3n12` [Example 3, (7R,14R)-1-chloro-11-(4-(dimethylphosphoryl)-3-fluorophenyl)-4-methyl-6-(methyl-d3)-6,7-dihydro-7,14-methanobenzo[f]benzo[4,5]imidazo[1,2-a][1,4]diazocin-5(14H)-one], the IC50 was ≤ 0.1 µM. `[2H]C([2H])([2H])N1C(=O)c2cccc(Cl)c2[C@H]2C[C@@H]1c1nc3ccc(-c4ccc(P(C)(C)=O)cc4F)cc3n12` [Example 8, (7R,14R)-1-chloro-11-(4-(dimethylphosphoryl)-2-fluorophenyl)-6-(methyl-d3)-6,7-dihydro-7,14-methanobenzo[f]benzo[4,5]imidazo[1,2-a][1,4]diazocin-5(14H)-one]: the IC50 is ≤ 0.1 µM.

Turning to `[2H]C([2H])([2H])C([2H])([2H])N1C(=O)c2cccc(Cl)c2[C@H]2C[C@@H]1c1nc3ccc(-c4ccc(P(C)(C)=O)c(F)c4)cc3n12` [Example 10, (7R,14R)-1-chloro-11-(4-(dimethylphosphoryl)-3-fluorophenyl)-6-(ethyl-d5)-6,7-dihydro-7,14-methanobenzo[f]benzo[4,5]imidazo[1,2-a][1,4]diazocin-5(14H)-one], the IC50 was ≤ 0.1 µM. Still for that read-out and setting: in the case of `[2H]C([2H])([2H])N1C(=O)c2c(C)ccc(Cl)c2[C@H]2C[C@@H]1c1nc3ccc(-c4ccc(P(C)(C)=O)nc4)cc3n12` [Example 6, (7R,14R)-1-chloro-11-(6-(dimethylphosphoryl)pyridin-3-yl)-4-methyl-6-(methyl-d3)-6,7-dihydro-7,14-methanobenzo[f]benzo[4,5]imidazo[1,2-a][1,4]diazocin-5(14H)-one] it was ≤ 0.1 µM.

For a further test, the target named is T1, TNF-α. Nature of the test: TNF-α Induced THP 1 dual Cellular Assay. The test is classed as cell-based. The settings on record: THP1 dual cell reporter cells stimulated with TNF-α, 24 hrs, secreted alkaline phosphatase (QUANTI-Blue, 620 nm). Here is the method:
as §1, with “THP1 dual cell” for “HEK Blue™ TNFα”, “QUANTI-Blue™” for “QUANTI- Blue™”
Inhibition data for test compound over a range of concentration was plotted as percentage inhibition of the test compound (100%=maximum inhibition). IC50 values were determined after correcting for background [(sample read-mean of low control)/(mean of high control-mean of low control)] whereby the low control is DMSO without stimulation and high control is DMSO with stimulation. The IC50 is defined as the concentration of test compound which produces 50% inhibition and was quantified using the 4-parameter logistic equation to fit the data.
For the compound `[2H]C([2H])([2H])N1C(=O)c2cccc(F)c2[C@H]2C[C@@H]1c1nc3ccc(-c4cc(F)c(P(C)(C)=O)cc4F)cc3n12` [Example 12, (7R,14R)-11-(4-(dimethylphosphoryl)-2,5-difluorophenyl)-1-fluoro-6-(methyl-d3)-6,7-dihydro-7,14-methanobenzo[f]benzo[4,5]imidazo[1,2-a][1,4]diazocin-5(14H)-one], the IC50 was ≤ 0.1 µM.
